# Read-outs that look alike come from different tables or passages of the source.
# Key:
# [1] = cited from earlier work
# [2] = cited from earlier work; remark: listed apart in the source
# [3] = State of compositions (crystallization, solidification, scoopability, stability) in storage and at low temperature; format: physicochemical; conditions: compositions with N-methyl-2-pyrrolidone
# [4] = test system: viable microbes in industrial cooling water, washing water, raw water, power water; conditions: raw water and power water, Kokoku No. 14294/1977; cited from earlier work
# [5] = Storage and stability test in polyethylene bottle in can at 60° C. (HPLC remaining rate; half life); format: physicochemical; conditions: for Half life of dithiol compound: first order
# Description: The dithiol compound and N-methyl-2-pyrrolidone were mixed at the concentrations as shown in Table 4 to prepare compositions. Each 50 ml of the compositions was served in a polyethylene bottle, and the bottle was further served tightly in a can with a lid.
# The storage and stability tests were conducted by leaving the compositions standing at 60° C. for 11 days (or 15 days) and 30 days in the above state and examining the remaining rate of the dithiol compound based upon the measurement of area ratio at 317 nm by means of high performance liquid chromatography (HPLC).
# Since the decomposition rate of the dithiol compound fit to the first order reaction, a half life of the dithiol compound (t 1/2), in the each compositions at 60° C., was calculated with the following equation: […]
# wherein α represents a remaining percentage of the dithiol compound, k represents a decomposition rate constant of the dithiol compound and t represents a number of days.
# [6] = Solubility test: dithiol compound in 100 g of respective solvents at 25° C.; format: physicochemical
# Description: The solubilities (weight %) of the dithiol compound in 100 g of the respective solvents shown in Table 1 at 25° C. ar indicated in Table 1.
# [7] = powdery form; cited from earlier work
# [8] = cited from earlier work; remark: listed apart in the source
# [9] = Storage and stability test in transparent glass vessels at 60° C. (50% compositions, HPLC remaining rate); format: physicochemical
# Description: In transparent 50 ml-glass vessels, a 50% N-methyl-2-pyrrolidone composition of the dithiol compound (the composition of the present invention), a 50% dimethylformamide composition containing 5 weight % diethylene glycol monomethyl ether, a 50% N-vinyl-2-pyrrolidone composition and a 50% 2-pyrrolidone composition of the dithiol compound (compositions for comparison) were prepared, and the storage and stability tests were conducted.
# The tests were conducted by leaving the compositions standing at 60° C. for 15 days and 30 days and examining the remaining rate of the dithiol compound based upon the measurement of area ratio at 317 nm by means of high performance liquid chromatography (HPLC).
# [10] = Crystallization and redissolution test; format: physicochemical
# Description: In transparent 50 ml-glass vessels, the dithiol compound and N-methyl-2-pyrrolidone were mixed at the prescribed concentrations, and dissolved, if necessary, under heating. The crystals were yielded by cooling these solutions suitably, under the observation of the state. The crystallizing temperature was measured. The crystallized solutions were heated, and the temperature at which the crystals began to dissolve was measured.
# [11] = 10 weight % in N-methyl-2-pyrrolidone
# [12] = 20 weight % in N-methyl-2-pyrrolidone
# [13] = 30 weight % in N-methyl-2-pyrrolidone
# [14] = 40 weight % in N-methyl-2-pyrrolidone
# [15] = 50 weight % in N-methyl-2-pyrrolidone
# [16] = 60 weight % in N-methyl-2-pyrrolidone
# [17] = 70 weight % in N-methyl-2-pyrrolidone
# [18] = 80 weight % in N-methyl-2-pyrrolidone
structure (smiles),measurement,setting,value
CN(C)C=O [dimethylformamide],Toxicity,[1]; solvent,inherently so strong in toxicity
CN1CCCC1=O [N-Methyl-2-pyrrolidone],"Odor, inflammability, toxicity",[1]; solvent N-Methyl-2-pyrrolidone,"few problems in terms of odor, inflammability, toxicity"
"O=c1ssc(Cl)c1Cl [dithiol compound, 4,5-Dichloro-l,2-dithiol-3-one]",Storage and stability of the dithiol compound,"[2]; diethylene glycol monomethyl ether / dimethylformamide preparations, long period",insufficient to storage and stability of the dithiol compound over a long period
same,Solubility of the dithiol compound,"[2]; in 1,2-bis(bromoacetoxy)ethane, U.S. Pat. No. 4647577",about 22%
same,Solubility of the dithiol compound,"[2]; in mixed solvent of diethylene glycol monomethyl ether and dimethylformamide, 25° C., Kokoku No. 23721/1987",about 67 weight %
same,Storage and stability of the effective ingredient,[3],extremely high
same,Slime control,[4],excellent slime control agent
same,Remaining percentage of dithiol compound,"[5]; 5% in N-methyl-2-pyrrolidone, 15 days",70.8%
same,Remaining percentage of dithiol compound,"[5]; 5% in N-methyl-2-pyrrolidone, 30 days",58.3%
same,Half life of dithiol compound,[5]; 5% in N-methyl-2-pyrrolidone,39 days
same,Remaining percentage of dithiol compound,"[5]; 10% in N-methyl-2-pyrrolidone, 11 days",90.5%
same,Remaining percentage of dithiol compound,"[5]; 10% in N-methyl-2-pyrrolidone, 30 days",83.2%
same,Half life of dithiol compound,[5]; 10% in N-methyl-2-pyrrolidone,103 days
same,Remaining percentage of dithiol compound,"[5]; 15% in N-methyl-2-pyrrolidone, 11 days",93.7%
same,Remaining percentage of dithiol compound,"[5]; 15% in N-methyl-2-pyrrolidone, 30 days",87.4%
same,Half life of dithiol compound,[5]; 15% in N-methyl-2-pyrrolidone,145 days
same,Remaining percentage of dithiol compound,"[5]; 20% in N-methyl-2-pyrrolidone, 11 days",93.8%
same,Remaining percentage of dithiol compound,"[5]; 20% in N-methyl-2-pyrrolidone, 30 days",88.2%
same,Half life of dithiol compound,[5]; 20% in N-methyl-2-pyrrolidone,153 days
same,Remaining percentage of dithiol compound,"[5]; 25% in N-methyl-2-pyrrolidone, 11 days",94.3%
same,Remaining percentage of dithiol compound,"[5]; 25% in N-methyl-2-pyrrolidone, 30 days",89.0%
same,Half life of dithiol compound,[5]; 25% in N-methyl-2-pyrrolidone,165 days
same,Remaining percentage of dithiol compound,"[5]; 30% in N-methyl-2-pyrrolidone, 11 days",95.6%
same,Remaining percentage of dithiol compound,"[5]; 30% in N-methyl-2-pyrrolidone, 30 days",88.8%
same,Half life of dithiol compound,[5]; 30% in N-methyl-2-pyrrolidone,174 days
same,Remaining percentage of dithiol compound,"[5]; 35% in N-methyl-2-pyrrolidone, 11 days",95.7%
same,Remaining percentage of dithiol compound,"[5]; 35% in N-methyl-2-pyrrolidone, 30 days",89.3%
same,Half life of dithiol compound,[5]; 35% in N-methyl-2-pyrrolidone,181 days
same,Remaining percentage of dithiol compound,"[5]; 40% in N-methyl-2-pyrrolidone, 11 days",96.6%
same,Remaining percentage of dithiol compound,"[5]; 40% in N-methyl-2-pyrrolidone, 30 days",90.4%
same,Half life of dithiol compound,[5]; 40% in N-methyl-2-pyrrolidone,209 days
same,Remaining percentage of dithiol compound,"[5]; 50% in N-methyl-2-pyrrolidone, 15 days",97.3%
same,Remaining percentage of dithiol compound,"[5]; 50% in N-methyl-2-pyrrolidone, 30 days",93.3%
same,Half life of dithiol compound,[5]; 50% in N-methyl-2-pyrrolidone,300 days
same,Solubility,"[6]; in 1,2-Bis(bromoacetoxy)ethane",21.9 weight %
same,Solubility,[6]; in 2-Pyrrolidone,51.0 weight %
same,Amount by weight of dissolved dithiol compound,"[6]; in 100 g 1,2-Bis(bromoacetoxy)ethane",28 g
same,Amount by weight of dissolved dithiol compound,[6]; in 100 g 2-Pyrrolidone,104 g
same,Amount by weight of dissolved dithiol compound,[6]; in 100 g Dimethylformamide containing 5 weight % diethylene glycol monomethyl ether,206 g
same,Amount by weight of dissolved dithiol compound,[6]; in 100 g N-Methyl-2-pyrrolidone,222 g
same,Amount by weight of dissolved dithiol compound,[6]; in 100 g N-Vinyl-2-pyrrolidone,117 g
same,Solubility,[6]; in Dimethylformamide containing 5 weight % diethylene glycol monomethyl ether,67.3 weight %
same,Solubility,[6]; in N-Methyl-2-pyrrolidone,68.9 weight %
same,Solubility,[6]; in N-Vinyl-2-pyrrolidone,53.9 weight %
same,Skin irritancy,[7],highly skin-irritant
same,Stability in aqueous solution,[8]; aqueous solution,very unstable in the obtained aqueous solution and susceptible to hydrolysis in a short period of time
same,Solubility in water,[8]; water,below 1%
same,Remaining percentage of dithiol compound,"[9]; 50% in 2-pyrrolidone, 60° C., 15 days",38.9%
same,Remaining percentage of dithiol compound,"[9]; 50% in 2-pyrrolidone, 60° C., 30 days",18.0%
same,Remaining percentage of dithiol compound,"[9]; 50% in Dimethylformamide containing 5 weight % diethylene glycol monomethyl ether, 60° C., 15 days",94.2%
same,Remaining percentage of dithiol compound,"[9]; 50% in Dimethylformamide containing 5 weight % diethylene glycol monomethyl ether, 60° C., 30 days",84.7%
same,Remaining percentage of dithiol compound,"[9]; 50% in N-methyl-2-pyrrolidone, 60° C., 15 days",97.3%
same,Remaining percentage of dithiol compound,"[9]; 50% in N-methyl-2-pyrrolidone, 60° C., 30 days",93.3%
same,Observation on mixing with N-vinyl-2-pyrrolidone,"[9]; N-Vinyl-2-pyrrolidone composition could not be obtained, in a few minutes after mixing",exothermic polymerization reaction occurred intensively
same,Decomposition of dithiol compound in the composition of the invention,"[9]; in N-methyl-2-pyrrolidone, left standing 15 days and 30 days, 60° C.",scarcely decomposed
same,Crystallizing temperature,[10]; [11],-29.3 °C
same,Crystals-dissolving temperature,[10]; [11],-23.7 °C
same,Crystallizing temperature,[10]; [12],-27.8 °C
same,Crystals-dissolving temperature,[10]; [12],-22.7 °C
same,Crystallizing temperature,[10]; [13],-22.0 °C
same,Crystals-dissolving temperature,[10]; [13],-16.2 °C
same,Crystallizing temperature,[10]; [14],-18.8 °C
same,Crystals-dissolving temperature,[10]; [14],-9.2 °C
same,Crystallizing temperature,[10]; [15],-18.3 °C
same,Crystals-dissolving temperature,[10]; [15],4.7 °C
same,Crystallizing temperature,[10]; [16],-13.3 °C
same,Crystals-dissolving temperature,[10]; [16],12.0 °C
same,Crystallizing temperature,[10]; [17],6.0 °C
same,Crystals-dissolving temperature,[10]; [17],26.5 °C
same,Crystallizing temperature,[10]; [18],26.8 °C
same,Crystals-dissolving temperature,[10]; [18],36.2 °C

# From US4987148A, “Biocidal 4,5-dichloro-1,2-dithiol-3-one composition” (Yoshitomi Pharmaceutical Industries, Ltd., priority 1989, dated 1991)
